Data from patent US4633014A, “Substituted 3-hydrazinopropionates” (priority 1983, dated 1986).

How the values were obtained:
[1] = test system: arrhythmia induced by an intravenous administration of calcium chloride; assay: Antiarrhythmic activity on a model of arrhythmia induced by intravenous calcium chloride (antagonism to calcium) in mice; format: in vivo; conditions: white mice, 20-40 minutes before
Protocol: The specific (antiarrhythmic) effect and acute toxicity were studied.
The antiarrhythmic activity of the compounds according to the present invention was studied on a model of arrhythmia induced by an intravenous administration of calcium chloride. In experiments on white mice of both sexes with a mass of 18-25 g narcotized by urethane (1,200 mg/kg intraperitoneally) ECG in the second standard lead was recorded. A 2% solution of calcium chloride was introduced into the tail vein at a constant rate (0.01 ml for 2 sec). The dose of calcium chloride causing arrhythmia and the dose causing the heart arrest were determined. In the test groups the test compounds were administered intraperitoneally 20-40 minutes before the beginning of the experiment.

in vivo = conditions: mouse, in vivo, ip
Protocol: (§1) The study of the effect provided by the compounds according to the present invention on the cardio-vascular system was carried out in experiments on white mice. The specific (antiarrhythmic) effect and acute toxicity were studied.
(§2) The acute toxicity of the compounds according to the present invention was determined in experiments on white mice with a mass of 20-25 g. The test compounds were administered intraperitoneally in the form of aqueous solutions or suspensions in Twin-80. Observation over the test animals was effected for 10 days.

white mice = assay: in vivo
Protocol: as §1, §2

[2] = white mice, intraperitoneal, relative to quinidine

For `COC(=O)CCN(C(=O)CCO)N(C)C` [I-35, 3-(2,2-Dimethyl-1-3'-hydroxypropanoylhydrazino)-methylpropionate], which “Dose of calcium chloride causing arrythmia in animals under experiment” value ([1]; intraperitoneal dose 5 mg/kg) is on record?
The value was 102,3 mg/kg.

And the “Dose of calcium chloride causing death in animals under experiment” value (“Dose of calcium chloride causing death” below) ([1]; intraperitoneal dose 5 mg/kg)?
The value was 120 mg/kg.

What about the “Dose of calcium chloride causing arrythmia in animals under experiment” value ([1]; intraperitoneal dose 15 mg/kg) of the same compound?
The value was 105,8 mg/kg.

What about the “Dose of calcium chloride causing death” value ([1]; intraperitoneal dose 15 mg/kg) of the same compound?
Its value is 132,5 mg/kg.

And the LD50 at 240 h (in vivo)?
The LD50 at 240 h was greater than 3000 mg/kg.

What about the “Relative toxisity to quinidine” value (white mice; mouse, in vivo, ip, 14400 min) of the same compound?
Its value is > 19,2.

Which results are given for `COC(=O)CCN(C(=O)OC)N(C)C` [I-36, 3-(2,2-dimethyl-1-methoxycarbonylhydrazino)methylpropionate]?
Dose of calcium chloride causing arrythmia in animals under experiment ([1]; intraperitoneal dose 5 mg/kg): 94,0 mg/kg; Dose of calcium chloride causing death in animals under experiment ([1]; intraperitoneal dose 5 mg/kg): 113,6 mg/kg; Dose of calcium chloride causing arrythmia in animals under experiment ([1]; intraperitoneal dose 15 mg/kg): 98,6 mg/kg; Dose of calcium chloride causing death in animals under experiment ([1]; intraperitoneal dose 15 mg/kg): 118,5 mg/kg; LD50 at 240 h (in vivo): 1380 mg/kg; Relative toxisity to quinidine (white mice; [2]): 8,8

Which “Dose of calcium chloride causing arrythmia in animals under experiment” value ([1]; intraperitoneal dose 5 mg/kg) does the source give for `COC(=O)C(C)CN(C(C)=O)N(C)C` (stereo not drawn) [I-37, 3-(2,2-dimethyl-I-acetylhydrazino)-2-methylmethylpropionate] here?
The value was 100 mg/kg.

What about the “Dose of calcium chloride causing death” value ([1]; intraperitoneal dose 5 mg/kg) of the same compound?
The value was 132,0 mg/kg.

And the “Dose of calcium chloride causing arrythmia in animals under experiment” value ([1]; intraperitoneal dose 15 mg/kg)?
Its value is 123 mg/kg.

What about the “Dose of calcium chloride causing death” value ([1]; intraperitoneal dose 15 mg/kg) of the same compound?
Its value is 138,0 mg/kg.

And the LD50 at 240 h (in vivo)?
Its LD50 at 240 h is 810 mg/kg.

What about the “Relative toxisity to quinidine” value (white mice; [2]) of the same compound?
The value was 5,1.

With `CCCCCC(=O)N(CC(C)C(=O)OC)N(C)C` (stereo not drawn) [I-38, 3-(2,2-dimethyl-1-hexanoylhydrazino)-2-methylmethylpropionate] as the compound, how does the “Dose of calcium chloride causing arrythmia in animals under experiment” value ([1]; intraperitoneal dose 5 mg/kg) read?
Its value is 102,0 mg/kg.

And the “Dose of calcium chloride causing death” value ([1]; intraperitoneal dose 5 mg/kg)?
The value was 115,8 mg/kg.

And the “Dose of calcium chloride causing arrythmia in animals under experiment” value ([1]; intraperitoneal dose 15 mg/kg)?
The value was 96,5 mg/kg.

What about the “Dose of calcium chloride causing death” value ([1]; intraperitoneal dose 15 mg/kg) of the same compound?
Its value is 120,0 mg/kg.

And the LD50 at 240 h (in vivo)?
The LD50 at 240 h was 1930 mg/kg.

And the “Relative toxisity to quinidine” value (white mice; mouse, in vivo, ip, 14400 min)?
The value was 12,3.

For `COC(=O)C(C)CN(C(=O)c1ccccc1)N(C)C` (stereo not drawn) [I-39, 3-(2,2-dimethyl-1-benzoylhydrazino)-2-methylmethylpropionate], which “Dose of calcium chloride causing arrythmia in animals under experiment” value ([1]; intraperitoneal dose 5 mg/kg) is on record?
Its value is 88,7 mg/kg.

And the “Dose of calcium chloride causing death” value ([1]; intraperitoneal dose 5 mg/kg)?
The value was 111,3 mg/kg.

What about the “Dose of calcium chloride causing arrythmia in animals under experiment” value ([1]; intraperitoneal dose 15 mg/kg) of the same compound?
Its value is 100,0 mg/kg.

And the “Dose of calcium chloride causing death” value ([1]; intraperitoneal dose 15 mg/kg)?
Its value is 121,5 mg/kg.

What about the LD50 at 240 h (in vivo) of the same compound?
The LD50 at 240 h was 1750 mg/kg.

And the “Relative toxisity to quinidine” value (white mice; mouse, in vivo, ip, 14400 min)?
The value was 11,2.

What does the source list for `COC(=O)C(C)CN(C(=O)c1ccccc1F)N(C)C` (stereo not drawn) [I-40, 3-(2,2-dimethyl-1-2'-fluorobenzoylhydrazino)-2-methylmethylpropionate]?
Dose of calcium chloride causing arrythmia in animals under experiment ([1]; intraperitoneal dose 5 mg/kg): 93,5 mg/kg; Dose of calcium chloride causing death in animals under experiment ([1]; intraperitoneal dose 5 mg/kg): 115,0 mg/kg; Dose of calcium chloride causing arrythmia in animals under experiment ([1]; intraperitoneal dose 15 mg/kg): 103,3 mg/kg; Dose of calcium chloride causing death in animals under experiment ([1]; intraperitoneal dose 15 mg/kg): 118,6 mg/kg; LD50 at 240 h (in vivo): 1400 mg/kg; Relative toxisity to quinidine (white mice; mouse, in vivo, ip, 14400 min): 8,0

For `COC(=O)C(C)CN(C(=O)c1ccc(Br)cc1)N(C)C` (stereo not drawn) [I-41], which “Dose of calcium chloride causing arrythmia in animals under experiment” value ([1]; intraperitoneal dose 5 mg/kg) is on record?
The value was 90,6 mg/kg.

What about the “Dose of calcium chloride causing death” value ([1]; intraperitoneal dose 5 mg/kg) of the same compound?
The value was 110,0 mg/kg.

And the “Dose of calcium chloride causing arrythmia in animals under experiment” value ([1]; intraperitoneal dose 15 mg/kg)?
Its value is 102,5 mg/kg.

And the “Dose of calcium chloride causing death” value ([1]; intraperitoneal dose 15 mg/kg)?
Its value is 122,0 mg/kg.

What about the LD50 at 240 h (in vivo) of the same compound?
Its LD50 at 240 h is 2430 mg/kg.

And the “Relative toxisity to quinidine” value (white mice; [2])?
The value was 15,5.

Which results are given for `CCOC(=O)CCN(C(C)=O)N(C)C` [I-42, 3-(2,2-dimethyl-1-acetylhydrazino)ethylpropionate]?
Dose of calcium chloride causing arrythmia in animals under experiment ([1]; intraperitoneal dose 5 mg/kg): 87,5 mg/kg; Dose of calcium chloride causing death in animals under experiment ([1]; intraperitoneal dose 5 mg/kg): 112,0 mg/kg; Dose of calcium chloride causing arrythmia in animals under experiment ([1]; intraperitoneal dose 15 mg/kg): 103,0 mg/kg; Dose of calcium chloride causing death in animals under experiment ([1]; intraperitoneal dose 15 mg/kg): 115,0 mg/kg; LD50 at 240 h (in vivo): 2380 mg/kg; Relative toxisity to quinidine (white mice; mouse, in vivo, ip, 14400 min): 15,2

What does the source list for `CCCCCC(=O)N(CCC(=O)OCC)N(C)C` [I-43, 3-(2,2-dimethyl-1-hexanoylhydrazino)ethylpropionate]?
Dose of calcium chloride causing arrythmia in animals under experiment ([1]; intraperitoneal dose 5 mg/kg): 94,0 mg/kg; Dose of calcium chloride causing death in animals under experiment ([1]; intraperitoneal dose 5 mg/kg): 105,0 mg/kg; Dose of calcium chloride causing arrythmia in animals under experiment ([1]; intraperitoneal dose 15 mg/kg): 108,5 mg/kg; Dose of calcium chloride causing death in animals under experiment ([1]; intraperitoneal dose 15 mg/kg): 120,3 mg/kg; LD50 at 240 h (in vivo): 1460 mg/kg; Relative toxisity to quinidine (white mice; mouse, in vivo, ip, 14400 min): 9,3

Which results are given for `CCOC(=O)CCN(C(=O)c1ccccc1)N(C)C` [I-44, 3-(2,2-dimethyl-1-benzoylhydrazino)ethylpropionate]?
Dose of calcium chloride causing arrythmia in animals under experiment ([1]; intraperitoneal dose 5 mg/kg): 101,0 mg/kg; Dose of calcium chloride causing death in animals under experiment ([1]; intraperitoneal dose 5 mg/kg): 120,0 mg/kg; Dose of calcium chloride causing arrythmia in animals under experiment ([1]; intraperitoneal dose 15 mg/kg): 98,5 mg/kg; Dose of calcium chloride causing death in animals under experiment ([1]; intraperitoneal dose 15 mg/kg): 126,0 mg/kg; LD50 at 240 h (in vivo): 1650 mg/kg; Relative toxisity to quinidine (white mice; mouse, in vivo, ip, 14400 min): 10,5

What does the source list for `CCOC(=O)CCN(C(=O)c1ccccc1F)N(C)C` [I-45, 3-/2,2-dimethyl-1-(2'-fluorobenzoyl)-hydrazino/ethylpropionate]?
Dose of calcium chloride causing arrythmia in animals under experiment ([1]; intraperitoneal dose 5 mg/kg): 95,0 mg/kg; Dose of calcium chloride causing death in animals under experiment ([1]; intraperitoneal dose 5 mg/kg): 112,5 mg/kg; Dose of calcium chloride causing arrythmia in animals under experiment ([1]; intraperitoneal dose 15 mg/kg): 102,8 mg/kg; Dose of calcium chloride causing death in animals under experiment ([1]; intraperitoneal dose 15 mg/kg): 125,0 mg/kg; LD50 at 240 h (in vivo): 1480 mg/kg; Relative toxisity to quinidine (white mice; mouse, in vivo, ip, 14400 min): 9,4

Which “Dose of calcium chloride causing arrythmia in animals under experiment” value ([1]; intraperitoneal dose 5 mg/kg) does the source give for `CCOC(=O)CCN(C(=O)c1ccc(Br)cc1)N(C)C` [I-46, 3-/2,2-dimethyl-1-(4'-bromobenzoyl)hydrazino/ethylpropionate] here?
Its value is 98,0 mg/kg.

What about the “Dose of calcium chloride causing death” value ([1]; intraperitoneal dose 5 mg/kg) of the same compound?
Its value is 105,0 mg/kg.

What about the “Dose of calcium chloride causing arrythmia in animals under experiment” value ([1]; intraperitoneal dose 15 mg/kg) of the same compound?
The value was 100,0 mg/kg.

What about the “Dose of calcium chloride causing death” value ([1]; intraperitoneal dose 15 mg/kg) of the same compound?
The value was 118,3 mg/kg.

What about the LD50 at 240 h (in vivo) of the same compound?
Its LD50 at 240 h is 1500 mg/kg.

What about the “Relative toxisity to quinidine” value (white mice; mouse, in vivo, ip, 14400 min) of the same compound?
Its value is 9,6.

With `CC(=O)N(CCC(N)=O)N(C)C` [I-47, 3-(2,2-dimethyl-1-acetylhydrazino)propionamide] as the compound, how does the “Dose of calcium chloride causing arrythmia in animals under experiment” value ([1]; intraperitoneal dose 5 mg/kg) read?
Its value is 103 mg/kg.

And the “Dose of calcium chloride causing death” value ([1]; intraperitoneal dose 5 mg/kg)?
Its value is 118 mg/kg.

And the “Dose of calcium chloride causing arrythmia in animals under experiment” value ([1]; intraperitoneal dose 15 mg/kg)?
The value was 108 mg/kg.

And the “Dose of calcium chloride causing death” value ([1]; intraperitoneal dose 15 mg/kg)?
The value was 125 mg/kg.

And the LD50 at 240 h (in vivo)?
The LD50 at 240 h was greater than 3000 mg/kg.

What about the “Relative toxisity to quinidine” value (white mice; mouse, in vivo, ip, 14400 min) of the same compound?
The value was > 19,2.

For `CCCC(=O)N(CCC(N)=O)N(C)C` [I-48, 3-(2,2-dimethyl-1-butyrylhydrazino)propionamide], which “Dose of calcium chloride causing arrythmia in animals under experiment” value ([1]; intraperitoneal dose 5 mg/kg) is on record?
Its value is 88 mg/kg.

What about the “Dose of calcium chloride causing death” value ([1]; intraperitoneal dose 5 mg/kg) of the same compound?
The value was 101,8 mg/kg.

What about the “Dose of calcium chloride causing arrythmia in animals under experiment” value ([1]; intraperitoneal dose 15 mg/kg) of the same compound?
Its value is 95,3 mg/kg.

And the “Dose of calcium chloride causing death” value ([1]; intraperitoneal dose 15 mg/kg)?
Its value is 109 mg/kg.

What about the LD50 at 240 h (in vivo) of the same compound?
The LD50 at 240 h was 1700 mg/kg.

What about the “Relative toxisity to quinidine” value (white mice; mouse, in vivo, ip, 14400 min) of the same compound?
Its value is 10,9.
